In PubChem BioAssay (NCI):
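Compound exposure: 48 hours, 5 concentrations, 96-well plates. TGI marks complete inhibition of growth.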

Experiments:
Assay in all cases: inhibition of tumour cell growth, NCI panel, 48 h
SK-OV-3 ovarian = system: SK-OV-3 ovarian
HCC-2998 colon = system: HCC-2998 colon
SR leukemia = system: SR leukemia
PC-3 prostate = system: PC-3 prostate
EKVX NSCLC = system: EKVX NSCLC
HL-60(TB) leukemia = system: HL-60(TB) leukemia
HCT-15 colon = system: HCT-15 colon
SN12C renal = system: SN12C renal
OVCAR-5 ovarian = system: OVCAR-5 ovarian
MDA-MB-231 breast = system: MDA-MB-231 breast
K-562 leukemia = system: K-562 leukemia
A549 NSCLC = system: A549 NSCLC
T-47D breast = system: T-47D breast
HS 578T breast = system: HS 578T breast
NCI-H460 lung = system: NCI-H460 lung
SF-268 CNS = system: SF-268 CNS
A498 renal = system: A498 renal
IGROV1 ovarian = system: IGROV1 ovarian
CCRF-CEM leukemia = system: CCRF-CEM leukemia
NCI-H226 lung = system: NCI-H226 lung
OVCAR-3 ovarian = system: OVCAR-3 ovarian
SW-620 colon = system: SW-620 colon
DU-145 prostate = system: DU-145 prostate
OVCAR-8 ovarian = system: OVCAR-8 ovarian
MCF7 breast = system: MCF7 breast
NCI-H23 lung = system: NCI-H23 lung
SF-539 CNS = system: SF-539 CNS
U251 CNS = system: U251 CNS
TK-10 renal = system: TK-10 renal
MDA-MB-435 = system: MDA-MB-435
HCT-116 colon = system: HCT-116 colon
RXF 393 renal = system: RXF 393 renal
MOLT-4 leukemia = system: MOLT-4 leukemia
HOP-92 NSCLC = system: HOP-92 NSCLC
M14 melanoma = system: M14 melanoma
KM12 colon = system: KM12 colon
SK-MEL-2 melanoma = system: SK-MEL-2 melanoma
SK-MEL-5 melanoma = system: SK-MEL-5 melanoma
MALME-3M melanoma = system: MALME-3M melanoma
HOP-62 NSCLC = system: HOP-62 NSCLC
SK-MEL-28 melanoma = system: SK-MEL-28 melanoma
UO-31 renal = system: UO-31 renal
786-0 renal = system: 786-0 renal
SF-295 CNS = system: SF-295 CNS
ACHN renal = system: ACHN renal
NCI/ADR-RES ovarian = system: NCI/ADR-RES ovarian
BT-549 breast = system: BT-549 breast
UACC-62 melanoma = system: UACC-62 melanoma
SNB-19 CNS = system: SNB-19 CNS
HT29 colon = system: HT29 colon
OVCAR-4 ovarian = system: OVCAR-4 ovarian
NCI-H522 lung = system: NCI-H522 lung
RPMI-8226 leukemia = system: RPMI-8226 leukemia
CAKI-1 renal = system: CAKI-1 renal
LOX IMVI melanoma = system: LOX IMVI melanoma
UACC-257 melanoma = system: UACC-257 melanoma
COLO 205 colon = system: COLO 205 colon
SNB-75 CNS = system: SNB-75 CNS

Measured: TGI

Cc1ccc(C2(c3ccc(C)cc3)SC(=C(C#N)C#N)c3ccccc32)cc1
not listed: OVCAR-4 ovarian | NCI-H522 lung | RPMI-8226 leukemia | CAKI-1 renal | LOX IMVI melanoma | UACC-257 melanoma | COLO 205 colon | SNB-75 CNS
> 100 µM: all other assays above

N#CCCOc1cccc(C2(N3CCCCC3)CCCCC2)c1
not listed: HCC-2998 colon | NCI-H460 lung | RXF 393 renal | HOP-92 NSCLC | SNB-75 CNS
> 100 µM: all other assays above

O=C1Cc2c([nH]c3ccccc23)C2(CC3CCCCN13)OCCO2 (stereo not given)
not listed: HL-60(TB) leukemia | K-562 leukemia | SF-539 CNS | MOLT-4 leukemia | NCI-H522 lung | LOX IMVI melanoma
> 100 µM: all other assays above
